In publication PMC3590144, “Determination of the Structure of the Catabolic N-Succinylornithine Transaminase (AstC) from Escherichia coli” (PLoS ONE, 2013):

Key:
Assay type in all cases: binding
[1] = biological target: T1, AstC (Escherichia coli, UniProt P77581); test: differential scanning fluorimetry, SYPRO dye; conditions: Tris buffered saline; apo-protein plus PLP (about 10-fold excess) versus apo-protein
T1 construct: full-length, native untagged, no plasmid; purified from E. coli BL21(DE3) by Ni-NTA and size exclusion as apo-protein, reconstituted with PLP; about 406 residues; dimer
T1 sequence (P77581 whole entry): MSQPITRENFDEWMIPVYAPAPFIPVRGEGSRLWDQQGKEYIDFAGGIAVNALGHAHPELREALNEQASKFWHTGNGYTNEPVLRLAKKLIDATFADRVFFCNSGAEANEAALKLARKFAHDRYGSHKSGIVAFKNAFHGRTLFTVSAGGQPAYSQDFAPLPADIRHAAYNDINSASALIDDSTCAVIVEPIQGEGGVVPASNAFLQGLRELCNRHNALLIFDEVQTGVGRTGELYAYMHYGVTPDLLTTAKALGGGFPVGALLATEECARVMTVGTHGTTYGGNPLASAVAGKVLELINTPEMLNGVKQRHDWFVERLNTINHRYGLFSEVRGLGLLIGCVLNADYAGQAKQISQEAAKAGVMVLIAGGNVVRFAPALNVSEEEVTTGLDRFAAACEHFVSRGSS

[2] = biological target: T1, AstC; test: X-ray crystal structure, […] Å; conditions: covalent; internal aldimine with Lys252 at dimer interface; sodium malonate, Tris pH 8.0
[3] = biological target: T1, AstC; test: X-ray crystal structure of co-crystals, […] Å; conditions: covalent to PLP cofactor (external aldimine); PLP present; salt bridge to Arg141; ammonium sulfate pH 7-9

Compound | apparent Tm (holo-AstC; apo-AstC 43.5) [1] | X-ray crystal structure, 2.20 Å [2] | X-ray crystal structure of co-crystals, 2.45 Å [3]
Cc1ncc(COP(=O)(O)O)c(C=O)c1O [PLP, pyridoxal phosphate] | 46 °C | continuous density between Lys252 and the PLP, indicating that the expected aldimine had formed | –
NCCC[C@H](NC(=O)CCC(=O)O)C(=O)O [SO, succinylornithine] | – | – | continuous electron density between PLP and SO was observed (see Figure 5C)
